This passage reports Activity results from ChEMBL document CHEMBL1125606, “Synthesis and binding of [125I2]philanthotoxin-343, [125I2]philanthotoxin-343-lysine, and [125I2]philanthotoxin-343-arginine to rat brain membranes” (J Med Chem, 1991).

For the test, the species on record is Rattus norvegicus. Briefly: Percent control measured by evaluating the inhibition of 3 nM [125I]PhTX-343-lysine binding to glutamate receptors in rat cortical membranes. Particulars: Membrane. It counts as cell membranes. Details: scale not given: the % may be the effect or the level left.
`NCC(=O)O` came in with an Activity of 109%.

Consider `O=[N+]([O-])c1cc2nc(O)c(O)nc2cc1[N+](=O)[O-]`, for which the Activity amounted to 102%.

Consider `NCCCNCCCCNCCCN`, for which the Activity turned out to be 14.4%.

As for `CNC(CCC(=O)O)C(=O)O` (stereo unspecified), the Activity was found to be 96%.

In the case of `NC(CCCP(=O)(O)O)C(=O)O` (stereo unspecified), the Activity came to 94%.

Compound `c1ccc(C2(N3CCCCC3)CCCCC2)cc1` showed an Activity of 81%.

In the case of `N[C@@H](Cn1oc(=O)[nH]c1=O)C(=O)O`, the Activity was 104%.

For `CCCC(=O)N[C@@H](Cc1ccc(O)cc1)C(=O)NCCCCNCCCNCCCN`, the Activity came out at 32.7%.

`C[C@]12N[C@H](Cc3ccccc31)c1ccccc12`: the Activity turned out to be 92%.

With `C=C(C)[C@H]1CN[C@H](C(=O)O)[C@H]1CC(=O)O`, the Activity turned out to be 103%.

Compound `N[C@@H](CCC(=O)O)C(=O)O` registered an Activity of 99%.
